Results taken from US12290513B2, “Therapeutic methods and compositions for treating movement disorders” (Vima Therapeutics, Inc., priority 2023, dated 2025).
pEC50: −log10 of the molar value.

Key:
[1] = target: T1, human muscarinic receptor M5 (Homo sapiens, UniProt P08912); test: Calcium flux assay (FLIPR), CHO cells expressing human M5; format: cell-based; conditions: agonist mode
T1 construct: expressed in transfected cells
Protocol: (§1) All cells used in the following experiments were clonal populations of Chinese Hamster Ovary (CHO) cells stably expressing the corresponding human muscarinic receptor, except for the M4 cell line, which was a population of CHO cells transiently transfected with the human M4 receptor. Muscarinic agonism and antagonism of each receptor was measured by a quantitative calcium flux assay that is used for multiple classes of G-protein-coupled receptors, or GPCRs, as described elsewhere (e.g., Arkin et al., […], PMID: 22553878). Acetylcholine and atropine were used as positive controls for receptor agonism and antagonism, respectively. The procedure was as follows: • 1. Cells were thawed and cultured in cell culture medium (DMEM/F12 containing 10% FBS, 1× penicillin-streptomycin and 600 μg/ml hygromycin B) at 37° C. in 5% (v/v) CO2. • 2. One day before the assays, cells were detached using TrypLE™ and counted using a cell-counter. Only cells with >85% viability are used for the assay. • 3. […] Plates were read for 160 sec with 1 sec intervals to obtain the data in agonist mode, then kept at 25° C. in the dark for 30 min. • 11. […] Plates were read for 160 sec with 1 sec intervals, thereby measuring the ability for test compounds to antagonize the activation of muscarinic receptors by Ach.

[2] = target: T2, human muscarinic receptor M2 (Homo sapiens, UniProt P08172); test: Calcium flux assay (FLIPR), CHO cells expressing human M2; format: cell-based; conditions: agonist mode
T2 construct: expressed in transfected cells
Protocol: as §1

[3] = test system: Cerep87 Safety Panel receptors; test: Cerep87 Safety Panel (Eurofins), whole panel statements; format: binding; conditions: all receptors of the Cerep87 panel
[4] = target: human muscarinic receptor M3 (Homo sapiens, UniProt P20309); test: cell-based
Protocol: (§2) All cells used in the following experiments were clonal populations of Chinese Hamster Ovary (CHO) cells stably expressing the corresponding human muscarinic receptor, except for the M4 cell line, which was a population of CHO cells transiently transfected with the human M4 receptor. […] The procedure was as follows: • 1. Cells were thawed and cultured in cell culture medium (DMEM/F12 containing 10% FBS, 1× penicillin-streptomycin and 600 μg/ml hygromycin B) at 37° C. in 5% (v/v) CO2. • 2. One day before the assays, cells were detached using TrypLE™ and counted using a cell-counter. […] 12,000 cells/well were seeded in 30 μl/well culture medium in a 384-well cell plate and incubated overnight at 37C, 5% (v/v) CO2. • 4. On the assay day, 2× dye solution was prepared following the manual of the FLIPR® Calcium 6 Assay Kit: • i. The dye was diluted with assay buffer (20 mM HEPES in 1× HBSS, PH 7.4); • ii. Probenecid was added to a final concentration of 5 mM; • iii. […] were vortexed vigorously for 1-2 minutes. • 5. Medium was removed from the cell plate by flicking the cell plate on paper towels. • 6. 10 μl of assay buffer and 10 μl of 2× dye solution was added to each well of the cell plate. • 7. The cell plate was shaken on a plate shaker at 600 rpm for 2 minutes and incubated at 37° C. for 2 hours followed by an additional 15-minute incubation at 25° C. • 8. The test compounds were next prepared in assay buffer: • a. All compounds were diluted to the required concentration with DMSO and added to a 384-well compound plate; • b. All compounds were serially diluted; • 1. Starting with 10 mM concentration of each test compound, all samples were serially diluted in 3-fold dilutions. • 2. 90 nl/well of each compound was transferred from the source plate to a 384-well compound plate using an Echo liquid handler. • 3. 30 μl/well assay buffer was added to the compound plate; • c. The plates were mixed on a plate shaker for 2 mins; • 9. The cell plate, compound plate and pipette tips were placed in the FLIPR screening system and 10 μl of each compound was added to a well of the cell plate. • 10. Plates were read for 160 sec with 1 sec intervals to obtain the data in agonist mode, then kept at 25° C. in the dark for 30 min. • 11.

[5] = target: human muscarinic receptor M1 (Homo sapiens, UniProt P11229); test: cell-based
Protocol: as §2

human M4 receptor = target: T3, human M4 receptor (Homo sapiens, UniProt P08173); test: Calcium flux assay (FLIPR), CHO cells transiently transfected with human M4; format: cell-based; conditions: agonist mode
T3 construct: expressed in transfected cells; host or cells: CHO (transient transfection)
Protocol: All cells used in the following experiments were clonal populations of Chinese Hamster Ovary (CHO) cells stably expressing the corresponding human muscarinic receptor, except for the M4 cell line, which was a population of CHO cells transiently transfected with the human M4 receptor. […] The procedure was as follows: • 1. Cells were thawed and cultured in cell culture medium (DMEM/F12 containing 10% FBS, 1× penicillin-streptomycin and 600 μg/ml hygromycin B) at 37° C. in 5% (v/v) CO2. • 2. One day before the assays, cells were detached using TrypLE™ and counted using a cell-counter. […] 12,000 cells/well were seeded in 30 μl/well culture medium in a 384-well cell plate and incubated overnight at 37C, 5% (v/v) CO2. • 4. On the assay day, 2× dye solution was prepared following the manual of the FLIPR® Calcium 6 Assay Kit: • i. The dye was diluted with assay buffer (20 mM HEPES in 1× HBSS, PH 7.4); • ii. Probenecid was added to a final concentration of 5 mM; • iii. Cells were vortexed vigorously for 1-2 minutes. • 5. Medium was removed from the cell plate by flicking the cell plate on paper towels. • 6. 10 μl of assay buffer and 10 μl of 2× dye solution was added to each well of the cell plate. • 7. […] Plates were read for 160 sec with 1 sec intervals to obtain the data in agonist mode, then kept at 25° C. in the dark for 30 min. • 11.

tear production = test: THP-induced dry eye in dogs: tear production; format: in vivo, Beagles; conditions: oral, 2 mpk alone, 4 hours post administration
dizziness = conditions: humans; 3 mg THP immediate release at 0, 2, 4 hours versus 9 mg at once
Protocol: Experimental Design: All of the data collected in this example were run in a double-blind, randomized, placebo controlled setting of normal healthy adults. […] Dizziness was measured by the visual analog scale (VAS), a common clinical measure of dizziness.

Chain of human muscarinic receptor M3 (P20309 whole entry): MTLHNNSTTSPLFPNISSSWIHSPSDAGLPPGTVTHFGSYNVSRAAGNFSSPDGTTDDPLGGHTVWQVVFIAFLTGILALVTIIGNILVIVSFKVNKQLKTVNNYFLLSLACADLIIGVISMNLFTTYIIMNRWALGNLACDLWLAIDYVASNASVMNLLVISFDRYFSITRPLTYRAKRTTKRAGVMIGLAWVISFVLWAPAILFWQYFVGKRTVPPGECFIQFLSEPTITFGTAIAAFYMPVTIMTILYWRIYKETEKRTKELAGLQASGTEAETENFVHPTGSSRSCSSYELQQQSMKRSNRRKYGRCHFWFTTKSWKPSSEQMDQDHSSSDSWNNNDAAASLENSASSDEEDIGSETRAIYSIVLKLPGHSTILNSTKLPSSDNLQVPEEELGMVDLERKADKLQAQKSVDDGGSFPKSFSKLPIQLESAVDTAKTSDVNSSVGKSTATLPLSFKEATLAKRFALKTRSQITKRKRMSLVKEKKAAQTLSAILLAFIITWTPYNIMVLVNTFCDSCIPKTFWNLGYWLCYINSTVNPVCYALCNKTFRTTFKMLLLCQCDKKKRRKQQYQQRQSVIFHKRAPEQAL
T3 sequence (P08173 whole entry): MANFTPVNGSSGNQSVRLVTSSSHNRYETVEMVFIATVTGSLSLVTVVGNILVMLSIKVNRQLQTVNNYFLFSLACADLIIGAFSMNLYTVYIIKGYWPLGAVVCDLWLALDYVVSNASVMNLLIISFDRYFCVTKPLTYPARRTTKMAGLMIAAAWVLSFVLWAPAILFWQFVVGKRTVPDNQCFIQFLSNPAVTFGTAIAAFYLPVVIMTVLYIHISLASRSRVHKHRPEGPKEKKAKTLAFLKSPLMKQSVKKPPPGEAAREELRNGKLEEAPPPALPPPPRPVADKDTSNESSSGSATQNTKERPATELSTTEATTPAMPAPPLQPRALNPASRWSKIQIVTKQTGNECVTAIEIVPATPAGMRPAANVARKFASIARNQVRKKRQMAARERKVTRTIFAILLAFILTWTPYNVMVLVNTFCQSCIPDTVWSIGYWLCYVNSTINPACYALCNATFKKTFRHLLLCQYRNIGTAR
Chain of human muscarinic receptor M1 (P11229 whole entry): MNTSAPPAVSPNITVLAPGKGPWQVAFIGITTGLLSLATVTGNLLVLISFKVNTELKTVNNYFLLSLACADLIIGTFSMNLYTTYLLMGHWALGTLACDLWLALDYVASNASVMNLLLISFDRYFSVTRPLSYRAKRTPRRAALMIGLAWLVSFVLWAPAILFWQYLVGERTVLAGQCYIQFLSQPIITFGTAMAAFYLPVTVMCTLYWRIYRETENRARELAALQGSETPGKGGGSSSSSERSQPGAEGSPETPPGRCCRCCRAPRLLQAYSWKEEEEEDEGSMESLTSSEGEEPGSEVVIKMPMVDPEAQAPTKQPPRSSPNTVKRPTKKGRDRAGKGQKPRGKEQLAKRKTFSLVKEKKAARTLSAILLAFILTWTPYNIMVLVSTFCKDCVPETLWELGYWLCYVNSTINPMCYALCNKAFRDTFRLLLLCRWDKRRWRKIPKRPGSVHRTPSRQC
T1 sequence (P08912 whole entry): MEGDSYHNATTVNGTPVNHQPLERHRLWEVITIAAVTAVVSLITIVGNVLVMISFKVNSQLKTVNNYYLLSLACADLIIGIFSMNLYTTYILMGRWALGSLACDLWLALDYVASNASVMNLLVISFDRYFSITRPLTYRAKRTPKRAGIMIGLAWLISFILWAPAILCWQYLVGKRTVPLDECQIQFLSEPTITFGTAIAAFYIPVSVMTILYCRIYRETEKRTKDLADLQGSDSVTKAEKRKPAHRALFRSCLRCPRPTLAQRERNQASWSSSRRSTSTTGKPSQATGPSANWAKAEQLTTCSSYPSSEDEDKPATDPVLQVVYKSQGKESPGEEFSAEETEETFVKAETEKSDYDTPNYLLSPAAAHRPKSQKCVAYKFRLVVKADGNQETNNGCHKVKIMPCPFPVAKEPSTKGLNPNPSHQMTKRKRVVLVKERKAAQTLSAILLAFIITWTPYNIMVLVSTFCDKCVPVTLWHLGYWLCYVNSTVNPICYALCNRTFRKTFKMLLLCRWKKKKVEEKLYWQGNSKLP
T2 sequence (P08172 whole entry): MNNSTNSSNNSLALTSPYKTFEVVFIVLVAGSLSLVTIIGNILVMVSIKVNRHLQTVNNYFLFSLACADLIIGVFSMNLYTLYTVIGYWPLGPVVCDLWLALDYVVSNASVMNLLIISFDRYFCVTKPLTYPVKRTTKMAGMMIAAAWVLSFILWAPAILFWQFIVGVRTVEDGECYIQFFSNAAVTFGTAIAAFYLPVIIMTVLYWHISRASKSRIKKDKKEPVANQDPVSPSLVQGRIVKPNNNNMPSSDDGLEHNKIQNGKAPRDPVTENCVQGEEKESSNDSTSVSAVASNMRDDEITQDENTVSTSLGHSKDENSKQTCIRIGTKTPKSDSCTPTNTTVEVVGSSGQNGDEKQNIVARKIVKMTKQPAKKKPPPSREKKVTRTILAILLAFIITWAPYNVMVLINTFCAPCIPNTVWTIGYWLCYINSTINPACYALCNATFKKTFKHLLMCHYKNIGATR

Compound	pEC50 [1]	pEC50 [2]	signal at any receptor of the panel [3] [%]	pEC50 [4]	pEC50 [5]	pEC50 (human M4 receptor)	% Baseline tear production (tear production) [%]	dizziness (VAS) (dizziness)
C[C@H](C[N+](C)(C)C)OC(N)=O.[Cl-] [(R)-BTC, (R)-bethanechol, reference compound]	< 5.00	< 5.00	< 50	5.12	< 5.00	< 5.00	–	–
OC(CCN1CCCCC1)(c1ccccc1)C1CCCCC1 (centres unmarked) [THP, trihexyphenidyl]	–	–	–	–	–	–	89.1	significantly reduced dizziness
